Measurements: patent US12161630B2, “Methods to control infection using new generation small molecule growth inhibitors” (priority 2017, dated 2024)

Columns and labels:
C. clostridioforme = assay: Activity spectrum at 200 μM, C. clostridioforme; type: cell-based, Clostridium clostridioforme
Method: (§1) SM activity spectrum: The 128 selected SMs were tested for antimicrobial effects on nine different serotypes frequently implicated in foodborne gastroenteritis outbreaks. Later in the study, the four best SMs were tested against twelve beneficial/commensal gut bacteria. Both screens were performed at 200 μM as described in the primary screening. Growth conditions for each strain are described in Table 1.

[1] = test system: S. typhimurium WT internalized in HD11 cells; assay: S. typhimurium intracellular survival in infected HD11 cells; type: cell-based; conditions: Salmonella enterica
Method: (§2) Effect of the four SMs on S. typhimurium intracellular survival in cells lines: The ability of four SMs to clear S. typhimurium WT […] was evaluated using three cell lines (Caco-2 cells, HD11, and THP-1 cells). The Salmonella intracellular survival as assessed as described (13). A multiplicity of infection “MOI” of 10 was used. Infected cells were treated with 1 μl of SMs (final concentration ranged between 100 μM and 6.25 μM) at 37° C. for 24 hrs in humidified, 5% CO2 incubator. Following incubation, cells were washed once with 150 μl of 1×PBS, lysed with 0.1% Triton-100X, serial ten-fold diluted in 1×PBS, and plated on agar plate. Plates were incubated at 37° C. for 24 hrs to determine the intracellular survival. Cells not infected and not treated, and cells infected and treated with 2% DMSO were used as controls.

chicken red blood cells = assay: Hemolytic activity in chicken RBCs; type: cell-based; conditions: 200 μM, one-hour treatment
Method: (§3) Briefly, 200 μl of 10% sheep red blood cells (RBCs; LAMPIRE Biological Laboratories, Pipersville, PA) suspension was incubated with 1 μl of SMs (200 μM) for one hour at 37° C. in a sterile, non-treated, flat bottom plate 96-well. After incubation, the plate was centrifuged at 4000 rpm for 5 min at 4° C., then placed on ice for five min. 100 μL of the supernatant was transferred into a new sterile, treated, flat bottom 96-well plate, and the OD was measured at 540 nm. For this experiment, 2% DMSO (negative control) and 0.1% Triton-100X (positive control) were used. % Hemolysis=(OD540 SM−OD540 DMSO)/(OD540 1× triton−OD540 PBS)×100. Similar experiment was performed with chicken RBCs (OARDC, Ohio).

sheep red blood cells = assay: Hemolytic activity in sheep RBCs; type: cell-based; conditions: 200 μM, one-hour treatment
Method: as §3

C. jejuni 81-176 = assay: Activity on avian pathogens at 200 μM, C. jejuni; type: cell-based, Campylobacter jejuni
Method: (§4) FIGS. 1(A-E). Selection of potent Salmonella growth inhibitors. FIG. 1A: High-throughput screening of 4182 SMs against S. typhimurium WT at 200 μM. Negative value: growth inhibition; Positive value: growth stimulation compared to S. typhimurium growth not treated. The black line represents growth inhibition caused by 2% DMSO. FIG. 1B: Activity of 19 S. typhimurium growth inhibitors against additional Salmonella serotypes. Light grey cells: total growth inhibition; dark grey cells: bacterial growth observed; black cells: not determined. FIG. 1C: Dose-response assays of the selected 19 SMs against S. typhimurium WT. […] The black line represents a cut off of nine serotypes killed per SM. FIG. 1E: Activity spectra of the selected four SMs at 200 μM each on several avian-pathogens (Campylobacter jejuni, Escherichia coli APEC, and Mycoplasma gallisepticum) and beneficial gut bacteria (remaining species). E. coli APEC refers to Avian Pathogenic E. coli and includes E. coli O1, O2, O8, O15, O18, O35, O78, O109, and O115. Light grey cells: cidal effect; dark grey cells: bacterial growth observed. Left side: phylogenetic tree based on NCBI taxonomic ID built with PhyloT software.
(§5) The selected four SMs were tested on twelve beneficial-commensal gut bacteria at 200 μM (FIG. 1E). […] These four SMs were also growth inhibitors of other avian pathogens at 200 μM (unpublished data, FIG. 1E). […]

[2] = test system: twelve beneficial-commensal gut bacteria; assay: Activity spectrum on twelve beneficial-commensal gut bacteria at 200 μM; type: cell-based
Method: as §1

[3] = test system: Avian Pathogenic E. coli (O1, O2, O8, O15, O18, O35, O78, O109, and O115); assay: Activity on avian pathogens at 200 μM, Avian Pathogenic E. coli; type: cell-based, Escherichia coli
Method: as §4, §5

[4] = test system: internalized Salmonella in Caco-2, HD11 and THP-1 cells; assay: S. typhimurium clearance in infected cell lines, summary over the three cell lines; type: cell-based; conditions: over the three cell lines (Caco-2, HD11, THP-1)
Method: as §2

E. faecalis = assay: Activity spectrum at 200 μM, E. faecalis; type: cell-based, Enterococcus faecalis
Method: as §1

B. longum = assay: Activity spectrum at 200 μM, B. longum; type: cell-based, Bifidobacterium longum
Method: as §1

L. rhamnosus GG = assay: Activity spectrum at 200 μM, L. rhamnosus GG; type: cell-based, Lactobacillus rhamnosus
Method: as §1

[5] = test system: PhoP regulon in S. typhimurium; conditions: four HTS, PubChem AID #1863, #1981, #2253, #2401; cited from earlier work
B. adolescentis = assay: Activity spectrum at 200 μM, B. adolescentis; type: cell-based, Bifidobacterium adolescentis
Method: as §1

L. brevis = assay: Activity spectrum at 200 μM, L. brevis; type: cell-based, Lactobacillus brevis
Method: as §1

B. thetaiolaomicron = assay: Activity spectrum at 200 μM, B. thetaiotaomicron; type: cell-based
Method: as §1

Compound: CC1CCC(C(C)C)C(OC(=O)Cn2c[n+](CC(=O)OC3CC(C)CCC3C(C)C)c3ccccc32)C1.[Cl-] (stereo not drawn) [SM1, 1,3-bis{2-[(2-isopropyl-5-methylcyclohexyl)oxy]-2-oxoethyl}-1H-3,1-benzimidazol-3-ium chloride]
- growth effect on C. clostridioforme (C. clostridioforme): no growth inhibition effect
- IC50 ([1]; TYPHIMURIUM, HD11, read-out: IC 50% (μm), HD11 cells): < 6.25 µM
- MBC ([1]; S. Typhimurium-infected HD11 cells, 24 hrs treatment): 12.5 µM
- hemolytic activity in chicken RBCs (chicken red blood cells): > 50%
- hemolytic activity in sheep RBCs (sheep red blood cells): > 50%
- effect against C. jejuni 81-176 (C. jejuni 81-176): bactericidal effects

Compound: CCCCCCCCCCCCCCCC[n+]1ccn(CC#N)c1.[Cl-] [SM3, 1-(cyanomethyl)-3-hexadecyl-1H-imidazol-3-ium chloride]
- activity on twelve beneficial-commensal gut bacteria [2]: killing all twelve strains tested
- effect against Avian Pathogenic E. coli [3]: lethal
- concentration clearing internalized Salmonella [4]: 50 µM

Compound: CCCCCCCCCCCCCCCCn1c[n+](C)c2ccccc21.[Br-] [SM4, 1-hexadecyl-3-methyl-1H-3,1-benzimidazol-3-ium bromide]
- activity on twelve beneficial-commensal gut bacteria [2]: killing all twelve strains tested
- effect against Avian Pathogenic E. coli [3]: lethal
- concentration clearing internalized Salmonella [4]: 25 µM

Compound: CCOc1cc(/C=N/N=C(N)N)ccc1OCc1ccc(Cl)cc1 [SM5, N″-{4-[(4-chlorobenzyl)oxy]-3-ethoxybenzylidene}carbonohydrazonic diamide]
- growth effect on E. faecalis (E. faecalis): no effect
- growth effect on B. longum (B. longum): no effect
- growth effect on L. rhamnosus GG (L. rhamnosus GG): no effect
- inhibition of the PhoP regulon in S. typhimurium [5]: direct or indirect inhibitor
- growth effect on B. adolescentis (B. adolescentis): no effect
- growth effect on L. brevis (L. brevis): no effect
- hemolytic activity in chicken RBCs (chicken red blood cells): lower than 1%
- hemolytic activity in sheep RBCs (sheep red blood cells): lower than 1%
- growth effect on B. thetaiolaomicron (B. thetaiolaomicron): no effect
